Data published in US7445794B1, “Methods for treating human proliferative diseases, with a combination of fatty acid metabolism inhibitors and glycolytic inhibitors” (The Regents of the University of Colorado, priority 2004, dated 2008).

Tested on: HL60 MDR tumor
Test: Tumor volume of HL60 MDR tumor implanted in nude mice
Format: in vivo
Details: for effect on tumor growth (in words): over the 21 day period, versus control
From the text: Mice were purchased from the Animal Production Program of National Cancer Institute, Frederick, Md. The animals used were Athymic Ncr-nu/nu (strain code 01B74). HL60 MDR cells were harvested and reconstituted at 1 million cells per 100 microliters of phosphate buffered saline. One million tumor cells per injection site were implanted subcutaneously on two sites of the animal's back. Treatments began at exactly seven days post tumor implantation. Tumor size/volume was monitored twice weekly using measurement calipers, with the formula Tumor Volume=π×(short diameter)^2×(long diameter)/6.
Treatment groups were: etomoxir at 200 micrograms/day; 2-deoxy-D-glucose at 2.5 mM in 100 microliters daily; and the combination daily of etomoxir at 200 micrograms and 2-deoxy-D-glucose at 2.5 mM in 100 microliters.
HL60 MDR human leukemia cells were cultured and implanted in nude mice as described above under “Materials and Methods”. The mice were given 200 ug of Etomoxir, 2.5 mM 2-Deoxy-D-glucose, or both 200 ug of Etomoxir and 2.5 mM 2-Deoxy-D-glucose given daily by IP injection. Treatment began exactly one week after tumor implantation.

Structure (SMILES)	effect on tumor growth (in words)	tumor volume Day 7 (Day 7 after implantation (start of daily IP treatment), etomoxir 200 ug, 2-deoxy-D-glucose 2.5 mM)
OC[C@H]1O[C@H](O)CC(O)[C@@H]1O (stereo partly drawn) [2-deoxy-D-glucose]	increase in tumor growth	–
CCOC(=O)C1(CCCCCCOc2ccc(Cl)cc2)CO1 (stereo not drawn) [etomoxir, 2-(6-(4-chlorophenoxy)-hexyl)-oxirane-2-carboxylic acid ethyl ester]	increase in tumor growth	36 mm^3
